Results: US20110217715A1, “GENE EXPRESSION IN DUCHENNE MUSCULAR DYSTROPHY” (CHILDREN'S HOSPITAL MEDICAL CENTER, priority 2008, published 2011)

Key:
[1] = system: individuals with DMD; details: individuals with DMD; cited from earlier work
[2] = system: mdx mouse; details: cited from earlier work
[3] = system: mRNA expression in peripheral blood of individuals with DMD; test: Whole-blood gene expression microarray: DMD administered deflazacort vs DMD administered prednisone; assay type: in vivo, human; details: blood
Method: Fifteen ml of blood was collected from each individual into 6 PAXgene® Vacutainer® tubes (PreAnalytiX, Germany) by antecubital fossa venipuncture. PAXgene® tubes contain a proprietary reagent that immediately stabilizes RNA, thus reducing RNA degradation and minimizing gene expression changes following phlebotomy. The tubes were then inverted 20 times, then remained undisturbed for 2 h at room temperature (about 19° C. to about 22° C.), and then stored at -70° C. until processed. Total RNA was isolated using the Paxgene® blood RNA kit (PreAnalytiX, Germany) according to the manufacturers instructions. The RNA isolated is from all cells in whole blood. Typical yields of total RNA isolated from about 7.5 ml of human whole blood were between 10 μg RNA and 40 μg RNA. RNA quality and purity was analyzed by spectrophotometry using the Nanodrop ND-1000, and RNA integrity was analyzed using the Agilent 2100 Bioanalyzer. […] Sample labeling, hybridization to chips, and image scanning were performed using standard Affymetrix protocols. For each whole blood sample from control individuals and individuals with DMD, total RNA was labeled using the One-Cycle Target Labeling protocol and hybridized to the arrays. […] Double-stranded cDNA synthesis, biotin-labeled cRNA synthesis, and cRNA fragmentation were performed according to the Affymetrix GeneChip Eukaryotic Expression Analysis protocol. The labeled, fragmented cRNA (15 μg) was hybridized at 45° C. overnight. After hybridization, the array was washed and stained. The arrays were scanned with an argon-ion laser at λ=570 nm, with a resolution of 3 μm/pixel (Affymetrix, Inc.). After scanning the array, the raw probe level values for each probe were saved in Affymetrix.cel files. […] Statistical analyses, including t-test analyses, unsupervised hierarchical clustering, and principal component analyses were conducted using Genespring 7.2 software ([…]® 7, Silicon Genetics, Redwood City Calif.). […] Corrections for multiple comparisons used a Benjamini-Hochberg False Discovery Rate (FDR) of 0.05, disclosed in Tang et al., J Cereb Blood Flow Metab 26 (2006) 1089, which is expressly incorporated by reference herein in its entirety. […] Sample processing and array hybridization, probe-level data analysis, and statistical analysis were identical to Example 1.

[4] = system: mRNA expression in peripheral blood of individuals with DMD; test: Whole-blood gene expression microarray: DMD administered prednisone or deflazacort vs DMD not administered steroid; assay type: in vivo, human
Method: Fifteen ml of blood was collected from each individual into 6 PAXgene® Vacutainer® tubes (PreAnalytiX, Germany) by antecubital fossa venipuncture. PAXgene® tubes contain a proprietary reagent that immediately stabilizes RNA, thus reducing RNA degradation and minimizing gene expression changes following phlebotomy. The tubes were then inverted 20 times, then remained undisturbed for 2 h at room temperature (about 19° C. to about 22° C.), and then stored at -70° C. until processed. Total RNA was isolated using the Paxgene® blood RNA kit (PreAnalytiX, Germany) according to the manufacturers instructions. The RNA isolated is from all cells in whole blood. […] Sample labeling, hybridization to chips, and image scanning were performed using standard Affymetrix protocols. For each whole blood sample from control individuals and individuals with DMD, total RNA was labeled using the One-Cycle Target Labeling protocol and hybridized to the arrays. […] Double-stranded cDNA synthesis, biotin-labeled cRNA synthesis, and cRNA fragmentation were performed according to the Affymetrix GeneChip Eukaryotic Expression Analysis protocol. […] After hybridization, the array was washed and stained. […] After scanning the array, the raw probe level values for each probe were saved in Affymetrix.cel files. […] Statistical analyses, including t-test analyses, unsupervised hierarchical clustering, and principal component analyses were conducted using Genespring 7.2 software ([…]® 7, Silicon Genetics, Redwood City Calif.). […] Corrections for multiple comparisons used a Benjamini-Hochberg False Discovery Rate (FDR) of 0.05, disclosed in Tang et al., J Cereb Blood Flow Metab 26 (2006) 1089, which is expressly incorporated by reference herein in its entirety. […] Individuals with DMD were evaluated and had been diagnosed by a single board-certified pediatric neurologist. The diagnosis of DMD was based in part upon clinical history, examination findings, and selected muscle biopsies and was confirmed by molecular diagnostic testing. […] Sample processing and array hybridization, probe-level data analysis, and statistical analysis were identical to Example 1.

[5] = DMD administered deflazacort or prednisone vs not administered

Row | expression of interleukin 1 beta, interleukin 1 receptor antagonist, and interleukin 6 receptor ([3]; individuals with DMD administered prednisone) | Compound | muscle function and strength [1] | expression of KFL10 ([2]; six weeks of prednisone administration in the mdx mouse) | expression of genes related to lipid metabolism ([3]; prednisone compared to deflazacort) | expression levels of FKBP5 [4, 5] | expression levels of genes in the chondroitin sulfate biosynthesis pathway [4, 5] | expression levels of haptoglobin and CD163 nucleic acids [4, 5] | expression levels of lactotransferrin and lipocalin [4, 5] | expression of KFL10 ([4]; individuals administered prednisone, deflazacort, or both vs DMD not administered any agent) | function and histology ([2]; mdx mouse)
1 |  | Cn1cnc([N+](=O)[O-])c1Sc1ncnc2nc[nH]c12 [azathioprine] | no improvement |  |  |  |  |  |  |  | 
2 | up-regulated | C[C@]12C=CC(=O)C=C1CC[C@@H]1[C@@H]2C(=O)C[C@@]2(C)[C@H]1CC[C@]2(O)C(=O)CO [prednisone] | improved muscle function and strength | up-regulated | up-regulated | up-regulated | up-regulated | up-regulated | increased expression levels | up-regulated | 
3 |  | cyclosporin A |  |  |  |  |  |  |  |  | improves function and histology
